Values after ≈ are worked out from the molar mass of the structure shown.
System: Streptococcus pyogenes
Assay: In vitro minimum inhibitory concentration (MIC) vs. Strep. pyogenes
Assay type: cell-based
Conditions: Streptococcus pyogenes, read-out: MIC vs. Strep. pyogenes
Method in brief: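 Broth inoculated with bacteria and test antibiotic, incubated overnight and read visually; MIC is the lowest concentration preventing turbidity. Test preparations also contain some of the corresponding tetrazole tautomer.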

Structure (SMILES) | MIC
CC1(C)S[C@@H]2[C@H](NC(=O)C(NC(=O)CSC3=NCCN3)c3ccccc3)C(=O)N2[C@H]1c1nn[nH]n1 (stereo partly drawn) [6-(2-[2-(Δ^1 -Imidazolin-2-ylthio)acetamido]-2-phenylacetamido)-2,2-dimethyl-3-(5-tetrazolyl)penam] | < 0.1 µg/mL
CCNC(=O)NCC(=O)N[C@@H](C(=O)N[C@@H]1C(=O)N2[C@@H]1SC(C)(C)[C@@H]2c1nnn[nH]1)c1ccccc1 [6-(D-2-[2-(3-Ethylureiod)acetamido]-2-phenylacetamido)-2,2-dimethyl-3-(5-tetrazolyl)penam] | < 0.1 µg/mL
CC1(C)S[C@@H]2[C@H](NC(=O)[C@H](NC(=O)Cc3ccc(N)cc3)c3ccccc3)C(=O)N2[C@H]1c1nn[nH]n1 [6-(D-2-[2-(4-Aminophenyl)acetamido]-2-phenylacetamido)-2,2-dimethyl-3-(5-tetrazolyl)penam] | < 0.1 µg/mL
CC1(C)S[C@@H]2[C@H](NC(=O)[C@H](NC(=O)CNC(=N)c3ccncc3)c3ccc(O)cc3)C(=O)N2[C@H]1c1nnn[nH]1 [6-(D-2-[2-(4-Pyridinecarboxamidino)acetamido]-2-(p-hydroxyphenyl]acetamido)-2,2-dimethyl-3-(5-tetrazolyl)penam] | < 0.1 µg/mL
CC1(C)S[C@@H]2[C@H](NC(=O)[C@H](NC(=O)Cc3ccc([N+](=O)[O-])cc3)c3ccccc3)C(=O)N2[C@H]1c1nn[nH]n1 [6-(D-2-[2-(4-nitrophenyl)acetamido]-2-phenylacetamido)-2,2-dimethyl-3-(5-tetrazolyl)penam] | < 0.1 µg/mL
CC1(C)S[C@@H]2[C@H](NC(=O)[C@H](NC(=O)CNC(=N)c3ccncc3)c3ccccc3)C(=O)N2[C@H]1c1nnn[nH]1 [6-(D-2-[2-(4-pyridinecarboxamidino)acetamido]-2-phenylacetamido)-2,2-dimethyl-3-(5-tetrazolyl)penam] | < 0.1 µg/mL
CC1(C)S[C@@H]2[C@H](NC(=O)[C@H](NC(=O)CNC(=N)c3ccccc3)c3ccccc3)C(=O)N2[C@H]1c1nnn[nH]1 [6-(D-2-[2-(Benzamidino)acetamido]-2-phenylacetamido)-2,2-dimethyl-3-(5-tetrazolyl)penam] | < 0.1 µg/mL
CC1(C)S[C@@H]2[C@H](NC(=O)[C@H](NC(=O)CCl)c3ccco3)C(=O)N2[C@H]1c1nn[nH]n1 [6-(D-2-[2-Chloroacetamido]-2-[2-furyl]acetamido)-2,2-dimethyl-3-(5-tetrazolyl)penam] | < 0.1 µg/mL
CC1(C)S[C@@H]2[C@H](NC(=O)[C@H](NC(=O)CN)c3ccc(O)cc3)C(=O)N2[C@H]1c1nnn[nH]1 [6-(D-2-[2-aminoacetamido]-2-[4-hydroxyphenyl]acetamido)-2,2-dimethyl-3-(5-tetrazolyl)penam] | < 0.1 µg/mL
CC1(C)S[C@@H]2[C@H](NC(=O)[C@H](NC(=O)C(=Cc3ccc(Cl)cc3)C(=O)O)c3ccccc3)C(=O)N2[C@H]1c1nnn[nH]1 [6-(D-2-[2-carboxy-2(p-chlorophenyl)acrylamido]-2-phenylacetamido)-2,2-dimethyl-3-(5-tetrazolyl)penam] | < 0.1 µg/mL
CC1(C)S[C@@H]2[C@H](NC(=O)[C@H](NC(=O)C(=Cc3cccs3)C(=O)O)c3ccccc3)C(=O)N2[C@H]1c1nnn[nH]1 [6-(D-2-[2-carboxy-3-(2-thienyl)acrylamido]-2-phenylacetamido)-2,2-dimethyl-3-(5-tetrazolyl)penam] | < 0.1 µg/mL
CC1(C)S[C@@H]2[C@H](NC(=O)[C@H](NS(=O)(=O)c3ccccc3)c3ccc(O)cc3)C(=O)N2[C@H]1c1nn[nH]n1 [6-(D-2-[Benzenesulfonamido]-2-[p-hydroxyphenyl]acetamido)-2,2-dimethyl-3-(5-tetrazolyl)penam] | < 0.1 µg/mL
CN(C)C=N[C@@H](C(=O)N[C@@H]1C(=O)N2[C@@H]1SC(C)(C)[C@@H]2c1nnn[nH]1)c1ccc(O)cc1 [6-(D-2-[Dimethylaminomethyleneamino]-2-[p-hydroxyphenyl]-acetamido)-2,2-dimethyl-3-(5-tetrazolyl)-penam] | < 0.1 µg/mL
CN(C)C=N[C@@H](C(=O)N[C@@H]1C(=O)N2[C@@H]1SC(C)(C)[C@@H]2c1nnn[nH]1)c1ccccc1 [6-(D-2-[Dimethylaminomethyleneamino]-2-phenylacetamido)-2,2-dimethyl-3-(5-tetrazolyl)penam] | < 0.1 µg/mL
CCCS(=O)(=O)N[C@@H](C(=O)N[C@@H]1C(=O)N2[C@@H]1SC(C)(C)[C@@H]2c1nn[nH]n1)c1ccc(O)cc1 [6-(D-2-[Propanesulfonamido]-2-[p-hydroxyphenyl]acetamido-)-2,2-dimethyl-3-(5-tetrazolyl)penam] | 0.1 µg/mL (≈ 0.202 µM)
CC1(C)S[C@@H]2[C@H](NC(=O)[C@H](N)c3ccc(O)c(Cl)c3)C(=O)N2[C@H]1c1nnn[nH]1 [6-(D-2-amino-2-[3-chloro-4-hydroxyphenyl]acetamido)-2,2-dimethyl-3-(5-tetrazolyl)penam] | 0.1 µg/mL (≈ 0.236 µM)
CC1(C)S[C@@H]2[C@H](NC(=O)[C@H](NC(=O)CN)c3ccccc3)C(=O)N2[C@H]1c1nn[nH]n1 [D-2-(2-aminoacetamido)-2-phenylacetyl, 6-(D-2-[2-Aminoacetamido]-2-phenylacetamido)-2,2-dimethyl-3-(5-tetrazolyl)penam] | < 0.1 µg/mL

Same assay, conditions: Streptococcus pyogenes; Examples; read-out: MIC against Strep. pyogenes

Structure (SMILES) | MIC
CC1(C)S[C@@H]2[C@H](NC(=O)[C@H](NC(=O)Nc3ccccc3)c3ccc(O)cc3)C(=O)N2[C@H]1c1nnn[nH]1 [6-(2-[3-Phenylureido]-2-[p-hydroxyphenyl]acetamido)-2,2-dimethyl-3-(5-tetrazolyl)penam] | < 0.1 µg/mL
CC(C)(C)C(=O)OCn1nnc([C@@H]2N3C(=O)[C@@H](NC(=O)[C@H](N)c4ccc(O)cc4)[C@H]3SC2(C)C)n1 [6-(D-2-Amino-2-[p-hydroxyphenyl]acetamido)-2,2-dimethyl-3-(2-[pivaloyloxymethyl]tetrazol-5-yl)penam] | 0.39 µg/mL (≈ 0.774 µM)

Same assay, conditions: Streptococcus pyogenes; Table II; two-fold serial dilution, Brain-Heart Infusion broth, overnight; read-out: MIC vs. Strep. pyogenes

Structure (SMILES) | MIC
CC1(C)S[C@@H]2[C@H](NC(=O)CNC(=O)NC(=N)Cc3ccc(Cl)cc3)C(=O)N2[C@H]1c1nnn[nH]1 [6-(2-[3-(2-[p-Chlorophenyl]acetimidoyl)ureido]acetamido)-2,2-dimethyl-3-(5-tetrazolyl)penam] | 100 µg/mL (≈ 203 µM)
Cc1onc(-c2ccccc2Cl)c1C(=O)N[C@@H]1C(=O)N2[C@@H]1SC(C)(C)[C@@H]2c1nnn[nH]1 [6-(3-[2-Chlorophenyl]-5-methyl-4-isoxazolecarboxamido)-2,2-dimethyl-3-(5-tetrazolyl)penam] | < 0.1 µg/mL
CC1(C)S[C@@H]2[C@H](NC(=O)[C@H](NC(=O)CNC(=O)NC(=N)N)c3ccc(O)cc3)C(=O)N2[C@H]1c1nnn[nH]1 [6-(D-2-[2-(3-[guanyl]ureido)acetamido]-2-[4-hydroxyphenyl]acetamido)-2,2-dimethyl-3-(5-tetrazolyl)penam] | 0.004 µg/mL (≈ 0.00753 µM)
CC1(C)S[C@@H]2[C@H](NC(=O)[C@H](NC(=O)COc3ccccc3)c3ccc(O)cc3)C(=O)N2[C@H]1c1nnn[nH]1 [6-(D-2-[2-Phenoxyacetamido]-2-[4-hydroxyphenyl]acetamido)-2,2-dimethyl-3-(5-tetrazol-5-yl)penam] | 0.2 µg/mL (≈ 0.382 µM)
CCN=C(NCC)SCC(=O)NC(=O)N[C@@H](C(=O)N[C@@H]1C(=O)N2[C@@H]1SC(C)(C)[C@@H]2c1nn[nH]n1)c1ccccc1 [6-(D-2-[3-(2-(N,N'-diethylguanylthio]acetyl)ureido]-2-phenylacetamido)-2,2-dimethyl-3-(5-tetrazolyl)penam] | 0.004 µg/mL (≈ 0.00679 µM)
CC1(C)S[C@@H]2[C@H](NC(=O)[C@H](NC(=O)NC(=O)CSC(=N)N)c3ccccc3)C(=O)N2[C@H]1c1nn[nH]n1 [6-(D-2-[3-(2-[Guanylthio]acetyl)ureido]-2-phenylacetamido)-2,2-dimethyl-3-(5-tetrazol-5-yl)penam] | 0.004 µg/mL (≈ 0.00751 µM)
CC1(C)S[C@@H]2[C@H](NC(=O)[C@H](NC(=O)NC(=N)N)c3ccc(O)cc3)C(=O)N2[C@H]1c1nnn[nH]1 [6-(D-2-[3-guanylureido]-2-[4-hydroxyphenyl]acetamido)-2,2-dimethyl-3-(5-tetrazolyl)-penam] | 0.004 µg/mL (≈ 0.00843 µM)
CC1(C)S[C@@H]2[C@H](NC(=O)[C@H](NC(=O)C3OC3C(=O)O)c3ccccc3)C(=O)N2[C@H]1c1nnn[nH]1 (stereo partly drawn) [6-(D-2-[4-Carboxy-2,3-propionamido]-2-phenylacetamido)-2,2-dimethyl-3-(5-tetrazol-5-yl)penam] | 0.2 µg/mL (≈ 0.41 µM)
CC1(C)S[C@@H]2[C@H](NC(=O)[C@H](NC(=O)COCC(=O)O)c3ccccc3)C(=O)N2[C@H]1c1nnn[nH]1 [6-(D-2-[Carboxymethoxy]acetamido-2-phenylacetamido)-2,2-dimethyl-3-(5-tetrazolyl)penam] | 0.2 µg/mL (≈ 0.409 µM)
CN=C(NC)SCC(=O)N[C@@H](C(=O)N[C@@H]1C(=O)N2[C@@H]1SC(C)(C)[C@@H]2c1nn[nH]n1)c1ccccc1 [6-(D-2-[N,N'-dimethylamidinothio)acetamido]-2-phenylacetamido)-2,2-dimethyl-3-(5-tetrazolyl)penam] | 0.004 µg/mL (≈ 0.00773 µM)
CC1(C)S[C@@H]2[C@H](NC(=O)[C@H](NC(=O)c3ccc(NC(=N)N)cc3)c3ccccc3)C(=O)N2[C@H]1c1nn[nH]n1 [6-(D-2-[p-Guanidinobenzamido]-2-phenylacetamido)-2,2-dimethyl-3-(5-tetrazolyl)penam] | 1.56 µg/mL (≈ 2.92 µM)
CC1(C)S[C@@H]2[C@H](NC(=O)[C@H](NC(=O)CN=[N+]=[N-])c3ccccc3)C(=O)N2[C@H]1c1nnn[nH]1 [D-2-(2-azicoacetamido)-2-phenylacetyl] | 0.2 µg/mL (≈ 0.438 µM)

Same assay, conditions: Streptococcus pyogenes; Table IV; read-out: MIC vs. Strep. pyogenes

Structure (SMILES) | MIC
CC1(C)S[C@@H]2[C@H](N3CN[C@H](c4ccc(O)cc4)C3=O)C(=O)N2[C@H]1c1nnn[nH]1 [6-(5-Oxo-4-[p-hydroxyphenyl]-1-imidazolidinyl)-2,2-dimethyl-3-(5-tetrazolyl)penam] | 6.25 µg/mL (≈ 15.6 µM)
CC1(C)S[C@@H]2[C@H](N3CN[C@H](c4ccccc4)C3=O)C(=O)N2[C@H]1c1nnn[nH]1 [6-(5-Oxo-4-phenyl-1-imidazolidinyl)-2,2-dimethyl-3-(5-tetrazolyl)penam] | 6.25 µg/mL (≈ 16.2 µM)
CC(C)(C)C(=O)OCn1nnc([C@@H]2N3C(=O)[C@@H](NC(=O)[C@H](N)c4ccc(O)cc4)[C@H]3SC2(C)C)n1 [6-(D-2-Amino-2-[p-hydroxyphenyl]acetamido)-2,2-dimethyl-3-(2-[pivaloyloxymethyl]tetrazol-5-yl)penam] | 0.39 µg/mL (≈ 0.774 µM)
CN(C)C=N[C@@H]1C(=O)N2[C@@H]1SC(C)(C)[C@@H]2c1nnn[nH]1 [6-([Dimethylamino]methyleneamino)-2,2-dimethyl-3-(5-tetrazolyl)penam] | 12.5 µg/mL (≈ 42.3 µM)
CC1(C)S[C@@H]2[C@H](N=CN3CCCCCC3)C(=O)N2[C@H]1c1nnn[nH]1 [6-([Hexahydro-1-azepinyl]methyleneamino)-2,2-dimethyl-3-(5-tetrazolyl)penam] | 50 µg/mL (≈ 143 µM)
